Earlier results in patent US20150118313A1, “ENHANCED FOLIC ACID FLUORESCENT MATERIAL, MULTIFLUORESCENT POROUS COMPOSITIONS OF MATTER AND POTENTIAL APPLICATIONS THEREOF” (Nanologica AB, priority 2010, published 2015).
Entries after “also recorded” stand apart in the source; their conditions may differ.

What was measured:
[1] = weak acid, neutralized in the range of pH 5-7
[2] = aqueous solvent; solubility is dependent on pH

| pKa [1] | Structure (SMILES) | solubility in aqueous solution [2] |
| --- | --- | --- |
| 6.6 | O=C(O)c1ccc(-c2c3nc(c(-c4ccc(C(=O)O)cc4)c4ccc([nH]4)c(-c4ccc(C(=O)O)cc4)c4nc(c(-c5ccc(C(=O)O)cc5)c5ccc2[nH]5)C=C4)C=C3)cc1 [TCPP, Meso-tetrakis (4-carboxyphenyl) porphyrin] | scarcely soluble; also recorded: poor solubility |
|  | Nc1nc2ncc(CNc3ccc(C(=O)N[C@@H](CCC(=O)O)C(=O)O)cc3)nc2c(=O)[nH]1 [folic acid] | poor solubility |
